This note sets out measurements from patent US8785457B2 (Cellzome Limited, priority 2009, dated 2014).

Assay [1] has as its target T1, DNA-dependent protein kinase (DNA-PK) (Homo sapiens, UniProt P78527).
T1 construct: endogenous in cells; host or cells: Jurkat, clone E6-1 (ATCC TIB-152) cell lysate
The assay can be described thus: kinobeads assay, DNA-PK. The format is binding. Summed up: (§1)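 Competitive binding in Jurkat cell lysate (5 mg/mL protein) against beads carrying an immobilized phenylmorpholin-chromen ligand, in DP buffer pH 7.4 with NP40, DTT and NaF. Bead-bound kinases were eluted and quantified by antibody dot blot with infrared detection, and IC50 was taken from dose-response curves of a 1:3 dilution series.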

A further assay has as its target T2, PI3K delta (PI3 Kd) (Homo sapiens, UniProt O00329).
T2 construct: endogenous in cells; host or cells: Jurkat, clone E6-1 (ATCC TIB-152) cell lysate
The assay can be described thus: kinobeads assay, PI3K delta. It counts as binding. Summed up: as §1

Where [2] appears, read: kinobeads assay, Table 4, read-out: Inhibition values (IC50) DNA-PK.
The mark [3] stands for this setting: kinobeads assay, Table 6, read-out: Inhibition values (IC50) DNAPK.
[4] abbreviates: kinobeads assay, Table 4, read-out: Inhibition values (IC50) PI3Kd.
Setting [5] is: kinobeads assay, Table 6, read-out: Inhibition values (IC50) PI3Kd.

pIC50: −log10 of the molar value. Read-outs that look alike come from different tables or passages of the source.

T1 sequence (P78527 whole entry): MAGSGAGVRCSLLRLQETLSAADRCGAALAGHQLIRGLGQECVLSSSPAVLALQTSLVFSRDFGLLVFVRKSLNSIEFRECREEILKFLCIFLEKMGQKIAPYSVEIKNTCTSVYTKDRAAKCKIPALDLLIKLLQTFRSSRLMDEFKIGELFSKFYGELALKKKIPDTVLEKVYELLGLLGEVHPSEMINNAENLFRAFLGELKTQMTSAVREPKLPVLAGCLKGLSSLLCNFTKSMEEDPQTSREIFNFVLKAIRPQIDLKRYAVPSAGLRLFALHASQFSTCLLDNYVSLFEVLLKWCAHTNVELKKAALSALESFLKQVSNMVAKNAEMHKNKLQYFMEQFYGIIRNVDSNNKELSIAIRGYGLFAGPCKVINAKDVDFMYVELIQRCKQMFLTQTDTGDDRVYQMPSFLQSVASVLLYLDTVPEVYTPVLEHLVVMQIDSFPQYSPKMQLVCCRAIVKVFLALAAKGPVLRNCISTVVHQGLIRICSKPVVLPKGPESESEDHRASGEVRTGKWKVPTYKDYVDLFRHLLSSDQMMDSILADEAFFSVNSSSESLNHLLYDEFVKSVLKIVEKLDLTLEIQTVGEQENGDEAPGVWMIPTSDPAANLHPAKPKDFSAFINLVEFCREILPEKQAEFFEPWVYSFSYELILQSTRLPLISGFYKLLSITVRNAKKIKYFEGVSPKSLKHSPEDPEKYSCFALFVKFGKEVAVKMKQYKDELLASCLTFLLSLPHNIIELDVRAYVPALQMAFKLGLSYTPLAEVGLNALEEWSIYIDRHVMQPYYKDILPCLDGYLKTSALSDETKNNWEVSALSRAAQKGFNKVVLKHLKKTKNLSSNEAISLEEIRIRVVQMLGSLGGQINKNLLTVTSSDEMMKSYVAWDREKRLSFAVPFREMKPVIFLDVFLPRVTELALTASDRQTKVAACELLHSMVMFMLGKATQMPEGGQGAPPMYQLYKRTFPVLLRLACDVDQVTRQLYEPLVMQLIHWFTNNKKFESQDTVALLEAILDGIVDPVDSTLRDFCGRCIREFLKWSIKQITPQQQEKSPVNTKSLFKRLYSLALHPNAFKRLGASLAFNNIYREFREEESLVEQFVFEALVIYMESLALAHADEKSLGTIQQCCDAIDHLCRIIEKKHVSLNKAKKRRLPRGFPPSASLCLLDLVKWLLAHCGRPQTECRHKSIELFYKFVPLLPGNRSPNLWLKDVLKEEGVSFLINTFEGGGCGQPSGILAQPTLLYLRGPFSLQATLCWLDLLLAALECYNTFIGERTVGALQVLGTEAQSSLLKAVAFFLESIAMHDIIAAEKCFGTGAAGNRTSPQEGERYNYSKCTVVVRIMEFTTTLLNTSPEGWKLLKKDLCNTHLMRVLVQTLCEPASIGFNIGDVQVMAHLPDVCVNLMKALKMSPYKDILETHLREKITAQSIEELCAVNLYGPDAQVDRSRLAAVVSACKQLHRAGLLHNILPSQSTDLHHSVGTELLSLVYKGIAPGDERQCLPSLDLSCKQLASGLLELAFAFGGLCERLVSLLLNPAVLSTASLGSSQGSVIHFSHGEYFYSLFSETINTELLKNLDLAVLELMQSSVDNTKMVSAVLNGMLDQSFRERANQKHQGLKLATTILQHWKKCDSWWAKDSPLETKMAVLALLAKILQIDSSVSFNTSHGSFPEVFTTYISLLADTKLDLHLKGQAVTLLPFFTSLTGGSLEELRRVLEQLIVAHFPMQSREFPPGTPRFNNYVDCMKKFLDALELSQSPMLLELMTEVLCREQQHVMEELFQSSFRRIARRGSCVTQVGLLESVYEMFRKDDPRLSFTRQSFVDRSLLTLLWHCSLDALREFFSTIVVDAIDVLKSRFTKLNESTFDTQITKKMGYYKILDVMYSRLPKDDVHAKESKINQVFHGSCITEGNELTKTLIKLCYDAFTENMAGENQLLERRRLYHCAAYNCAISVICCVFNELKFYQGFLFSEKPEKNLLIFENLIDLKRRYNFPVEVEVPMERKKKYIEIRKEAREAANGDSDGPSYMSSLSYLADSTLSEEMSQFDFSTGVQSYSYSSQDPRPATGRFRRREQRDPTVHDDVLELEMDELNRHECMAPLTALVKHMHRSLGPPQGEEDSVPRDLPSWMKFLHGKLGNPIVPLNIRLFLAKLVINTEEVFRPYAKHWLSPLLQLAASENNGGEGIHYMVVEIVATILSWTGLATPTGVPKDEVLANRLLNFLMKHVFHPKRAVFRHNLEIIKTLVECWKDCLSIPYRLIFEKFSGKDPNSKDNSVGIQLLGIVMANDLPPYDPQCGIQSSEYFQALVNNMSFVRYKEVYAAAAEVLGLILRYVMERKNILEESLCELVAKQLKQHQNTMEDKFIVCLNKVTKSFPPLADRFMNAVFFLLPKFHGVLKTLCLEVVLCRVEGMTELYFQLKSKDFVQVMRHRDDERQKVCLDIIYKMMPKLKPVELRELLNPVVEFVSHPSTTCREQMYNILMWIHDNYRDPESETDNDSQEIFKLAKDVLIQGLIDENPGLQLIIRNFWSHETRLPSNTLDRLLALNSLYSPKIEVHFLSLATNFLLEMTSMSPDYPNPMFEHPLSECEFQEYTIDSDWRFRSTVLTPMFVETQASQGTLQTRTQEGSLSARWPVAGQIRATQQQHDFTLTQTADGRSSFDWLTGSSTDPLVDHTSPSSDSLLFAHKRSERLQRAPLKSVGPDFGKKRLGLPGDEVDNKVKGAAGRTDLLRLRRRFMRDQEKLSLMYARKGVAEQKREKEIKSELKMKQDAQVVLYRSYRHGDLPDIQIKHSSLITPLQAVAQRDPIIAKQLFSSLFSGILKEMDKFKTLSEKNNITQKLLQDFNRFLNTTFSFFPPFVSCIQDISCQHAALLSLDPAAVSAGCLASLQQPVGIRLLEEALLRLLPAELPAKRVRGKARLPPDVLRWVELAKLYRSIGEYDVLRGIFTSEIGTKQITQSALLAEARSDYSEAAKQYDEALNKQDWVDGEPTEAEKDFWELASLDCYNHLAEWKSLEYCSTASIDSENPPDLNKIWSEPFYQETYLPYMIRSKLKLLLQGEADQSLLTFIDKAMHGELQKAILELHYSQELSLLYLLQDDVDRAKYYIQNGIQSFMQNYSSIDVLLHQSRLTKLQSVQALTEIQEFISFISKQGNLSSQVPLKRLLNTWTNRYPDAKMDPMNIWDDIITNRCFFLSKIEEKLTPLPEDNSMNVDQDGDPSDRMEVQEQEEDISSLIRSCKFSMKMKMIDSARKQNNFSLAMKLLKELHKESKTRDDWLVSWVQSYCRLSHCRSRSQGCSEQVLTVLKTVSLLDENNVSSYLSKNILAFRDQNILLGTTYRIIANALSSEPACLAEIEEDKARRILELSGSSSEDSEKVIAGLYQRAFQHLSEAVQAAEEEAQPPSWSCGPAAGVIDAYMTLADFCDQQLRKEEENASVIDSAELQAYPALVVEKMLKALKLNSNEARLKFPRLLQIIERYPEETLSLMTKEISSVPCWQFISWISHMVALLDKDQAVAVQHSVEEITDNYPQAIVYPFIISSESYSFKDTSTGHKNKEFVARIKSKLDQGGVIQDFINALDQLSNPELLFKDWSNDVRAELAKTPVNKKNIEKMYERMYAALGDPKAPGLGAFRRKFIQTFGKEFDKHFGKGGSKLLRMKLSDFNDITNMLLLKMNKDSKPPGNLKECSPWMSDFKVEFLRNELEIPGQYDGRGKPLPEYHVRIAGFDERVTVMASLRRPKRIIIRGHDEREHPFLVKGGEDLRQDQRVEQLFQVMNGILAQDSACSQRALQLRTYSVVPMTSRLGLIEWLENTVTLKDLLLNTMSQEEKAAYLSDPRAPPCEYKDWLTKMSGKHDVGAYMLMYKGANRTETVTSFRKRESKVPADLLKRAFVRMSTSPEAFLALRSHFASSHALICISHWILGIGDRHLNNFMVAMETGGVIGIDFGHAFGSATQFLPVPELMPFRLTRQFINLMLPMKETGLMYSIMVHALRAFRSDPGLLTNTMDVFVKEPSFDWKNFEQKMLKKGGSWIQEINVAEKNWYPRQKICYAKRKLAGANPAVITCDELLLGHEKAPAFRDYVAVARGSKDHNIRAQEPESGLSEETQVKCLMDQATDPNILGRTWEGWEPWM

For the compound `CCNC(=O)Nc1ccc(-c2nc3c(c(N4CCOC[C@@H]4C)n2)CN(S(C)(=O)=O)C3)cc1` [Example 32, (S)-1-ethyl-3-(4-(4-(3-methylmorpholino)-6-(methylsulfonyl)-6,7-dihydro-5H-pyrrolo[3,4-d]pyrimidin-2-yl)phenyl)urea], the pIC50 (in assay [1] (setting [2]); in assay [1] (setting [3]); at PI3K delta (PI3 Kd) (setting [4]); on PI3K delta (PI3 Kd) (setting [5])) was < 5.00 each time.

As for `CCOC(=O)N1Cc2nc(-c3ccc(NC(=O)NC4CC4)cc3)nc(N3CCOC[C@@H]3C)c2C1` [Example 34, (S)-ethyl 2-(4-(3-cyclopropylureido)phenyl)-4-(3-methylmorpholino)-5H-pyrrolo[3,4-d]pyrimidine-6(7H)-carboxylate], the pIC50 (in assay [1] (setting [2]); in assay [1] (setting [3]); on PI3K delta (PI3 Kd) (setting [4]); on PI3K delta (PI3 Kd) (setting [5])) was < 5.00 throughout.

With `CCOC(=O)N1Cc2nc(-c3ccc(NC(=O)NCCF)cc3F)nc(N3CCOCC3)c2C1` [Example 170, ethyl 2-(2-fluoro-4-(3-(2-fluoroethyl)ureido)phenyl)-4-morpholino-5H-pyrrolo[3,4-d]pyrimidine-6(7H)-carboxylate], the pIC50 was 5.00 to 6.00 in assay [1] (Further Kinobeads Data, read-out: DNAPK) and 5.00 to 6.00 on PI3K delta (PI3 Kd) (Further Kinobeads Data, read-out: PI3Kd).

Turning to `C[C@H]1COCCN1c1nc(-c2ccc(NC(=O)NC3CC3)cc2)nc2c1CN(C(=O)C(C)(C)C)C2` [Example 45, (S)-1-cyclopropyl-3-(4-(4-(3-methylmorpholino)-6-pivaloyl-6,7-dihydro-5H-pyrrolo[3,4-d]pyrimidin-2-yl)phenyl)urea], the pIC50 (in assay [1] (setting [2]); in assay [1] (setting [3]); at PI3K delta (PI3 Kd) (setting [4]); at PI3K delta (PI3 Kd) (setting [5])) was < 5.00 throughout.
